Reference: the NIST ThermoML archive (doi:10.1021/je700647x)

Legend:
[1] = Ring tensiometer
[2] = xn = mol fraction of the nth substance listed; settings: Ring tensiometer

CN(CCO)CCO [N-methyldiethanolamine]
[1]
Settings | surface tension liquid-gas [mN/m]
288.15 K | 39.99
293.15 K | 39.26
298.15 K | 38.92
303.15 K | 38.08
308.15 K | 37.63
313.15 K | 37.25

CN(CCO)CCO [N-methyldiethanolamine] + CCO
surface tension liquid-gas [mN/m], [2]
Settings | 288.15 K | 293.15 K | 298.15 K | 303.15 K | 308.15 K | 313.15 K
x1 = 0.0253 | 23.45 | 23.11 | 22.79 | 22.49 | 22.16 | 21.92
x1 = 0.0321 | 23.58 | 23.24 | 22.92 | 22.63 | 22.27 | 22.04
x1 = 0.1033 | 24.92 | 24.59 | 24.32 | 24.06 | 23.77 | 23.58
x1 = 0.1629 | 26.03 | 25.7 | 25.45 | 25.26 | 24.94 | 24.81
x1 = 0.1705 | 26.18 | 25.83 | 25.59 | 25.38 | 25.08 | 24.98
x1 = 0.2474 | 27.58 | 27.24 | 27.02 | 26.79 | 26.53 | 26.44
x1 = 0.3713 | 29.85 | 29.47 | 29.28 | 28.95 | 28.75 | 28.63
x1 = 0.4806 | 31.8 | 31.4 | 31.18 | 30.84 | 30.62 | 30.49
x1 = 0.5506 | 33.02 | 32.6 | 32.39 | 32.01 | 31.78 | 31.66
x1 = 0.7035 | 35.58 | 35.06 | 34.92 | 34.48 | 34.24 | 34.07
x1 = 0.7452 | 36.25 | 35.71 | 35.58 | 35.08 | 34.84 | 34.66
x1 = 0.8227 | 37.51 | 36.91 | 36.71 | 36.09 | 35.8 | 35.57
x1 = 0.9368 | 39.11 | 38.42 | 38.1 | 37.39 | 37 | 36.73
x1 = 1 | 39.99 | 39.26 | 38.92 | 38.08 | 37.63 | 37.25

CCO [ethanol]
Settings | surface tension liquid-gas [mN/m]
[1], 298.15 K | 21.85

CCO [ethanol] + CN(CCO)CCO
Settings | surface tension liquid-gas [mN/m]
[2], 298.15 K, x2 = 0 | 21.85

CCO [ethanol] + OCCN(CCO)CCO
Settings | surface tension liquid-gas [mN/m]
[2], 298.15 K, x2 = 0 | 21.85

OCCN(CCO)CCO [triethanolamine]
[1]
Settings | surface tension liquid-gas [mN/m]
288.15 K | 47.64
293.15 K | 46.77
298.15 K | 45.88
303.15 K | 45.16
308.15 K | 44.42
313.15 K | 43.4

OCCN(CCO)CCO [triethanolamine] + CCO
surface tension liquid-gas [mN/m], [2]
Settings | x1 = 0.0795 | x1 = 0.1461 | x1 = 0.2209 | x1 = 0.3266 | x1 = 0.4581 | x1 = 0.6263 | x1 = 0.7725 | x1 = 0.8489 | x1 = 0.9304 | x1 = 1
288.15 K | 24.1 | 25.4 | 27.12 | 29.68 | 33.17 | 37.65 | 41.56 | 43.57 | 45.78 | 47.64
293.15 K | 23.69 | 25.02 | 26.77 | 29.34 | 32.72 | 37.11 | 40.89 | 42.86 | 44.96 | 46.77
298.15 K | 23.32 | 24.7 | 26.42 | 28.97 | 32.29 | 36.57 | 40.24 | 42.16 | 44.22 | 45.88
303.15 K | 23.02 | 24.41 | 26.11 | 28.61 | 31.87 | 36.02 | 39.61 | 41.47 | 43.47 | 45.16
308.15 K | 22.71 | 24.12 | 25.78 | 28.21 | 31.42 | 35.48 | 39 | 40.83 | 42.77 | 44.42
313.15 K | 22.35 | 23.81 | 25.46 | 27.79 | 30.89 | 34.82 | 38.21 | 39.97 | 41.84 | 43.4
